Results published in ChEMBL document CHEMBL5303767, “Data for DCP probe JNJ-4355” (2023).
Activity calls are given as the source filed them. No cut-off for these calls is given here.

Tests used:
[1] = target: 5-hydroxytryptamine receptor 2C (Homo sapiens) (UniProt P28335); conditions: Compound concentration 10.0 uM
[2] = target: D(1B) dopamine receptor (Homo sapiens) (UniProt P21918); conditions: Compound concentration 10.0 uM
[3] = test system: MV4-11; experiment: MV4-11 cell line Proliferation assay; format: functional, Homo sapiens
[4] = target: T1, Induced myeloid leukemia cell differentiation protein Mcl-1 (Homo sapiens, UniProt Q07820); experiment: HTRF (MCL1)
[5] = target: Alpha-2C adrenergic receptor (Homo sapiens) (UniProt P18825); conditions: Compound concentration 10.0 uM
[6] = target: Alpha-1B adrenergic receptor (Homo sapiens) (UniProt P35368); conditions: Compound concentration 10.0 uM
[7] = target: Muscarinic acetylcholine receptor M5 (Homo sapiens) (UniProt P08912); conditions: Compound concentration 10.0 uM
[8] = organism: Rattus norvegicus; conditions: Compound concentration 10.0 uM
[9] = target: T2, Sodium-dependent noradrenaline transporter (Homo sapiens, UniProt P23975); conditions: Compound concentration 10.0 uM
[10] = test system: NOMO-1; experiment: NOMO-1 cell line Proliferation assay; format: functional, Homo sapiens
[11] = test system: KMS-12-PE; experiment: (§1) KMS-12-PE cell line Proliferation assay; format: functional, Homo sapiens
[12] = target: Muscarinic acetylcholine receptor M2 (Homo sapiens) (UniProt P08172); conditions: Compound concentration 10.0 uM
[13] = target: Alpha-2B adrenergic receptor (Homo sapiens) (UniProt P18089); conditions: Compound concentration 10.0 uM
[14] = target: D(1A) dopamine receptor (Homo sapiens) (UniProt P21728); conditions: Compound concentration 10.0 uM
[15] = target: Beta-2 adrenergic receptor (Homo sapiens) (UniProt P07550); conditions: Compound concentration 10.0 uM
[16] = target: 5-hydroxytryptamine receptor 1D (Homo sapiens) (UniProt P28221); conditions: Compound concentration 10.0 uM
[17] = test system: KMS-12-PE; experiment: as §1; format: functional, Homo sapiens; remark: listed apart in the source
[18] = target: Muscarinic acetylcholine receptor M1 (Homo sapiens) (UniProt P11229); conditions: Compound concentration 10.0 uM
[19] = target: Alpha-2A adrenergic receptor (Homo sapiens) (UniProt P08913); conditions: Compound concentration 10.0 uM
[20] = test system: KMS-12-PE; experiment: KMS-12-PE MCL-1 KO cell line Proliferation assay; format: functional, Homo sapiens
[21] = test system: THP-1; experiment: THP-1 cell line Proliferation assay; format: functional, Homo sapiens
[22] = target: Bcl-2-like protein 1 (Homo sapiens, UniProt Q07817); experiment: HTRF (BCL2L1)
[23] = target: T3, 5-hydroxytryptamine receptor 5A (Homo sapiens, UniProt P47898); conditions: Compound concentration 10.0 uM
[24] = target: Apoptosis regulator Bcl-2 (Homo sapiens, UniProt P10415); experiment: HTRF (BCL2); format: functional
[25] = test system: MOLM-13; experiment: MOLM-13 cell line Proliferation assay; format: functional, Homo sapiens
[26] = target: Sigma intracellular receptor 2 (Homo sapiens) (UniProt Q5BJF2); conditions: Compound concentration 10.0 uM
[27] = target: D(2) dopamine receptor (Homo sapiens) (UniProt P14416); conditions: Compound concentration 10.0 uM
[28] = target: D(4) dopamine receptor (Homo sapiens) (UniProt P21917); conditions: Compound concentration 10.0 uM
[29] = test system: Mino; experiment: MINO cell line Proliferation assay; format: functional, Homo sapiens
[30] = target: Sigma non-opioid intracellular receptor 1 (Homo sapiens) (UniProt Q99720); conditions: Compound concentration 10.0 uM
[31] = test system: EOL1; experiment: EOL-1 cell line Proliferation assay; format: functional, Homo sapiens
[32] = target: 5-hydroxytryptamine receptor 1A (Homo sapiens) (UniProt P08908); conditions: Compound concentration 10.0 uM
[33] = target: Histamine H1 receptor (Homo sapiens) (UniProt P35367); conditions: Compound concentration 10.0 uM
[34] = target: D(3) dopamine receptor (Homo sapiens) (UniProt P35462); conditions: Compound concentration 10.0 uM
[35] = target: Bcl-2-related protein A1 (Homo sapiens, UniProt Q16548); experiment: HTRF (BCL2A1)
[36] = target: T4, Sodium-dependent dopamine transporter (Homo sapiens, UniProt Q01959); conditions: Compound concentration 10.0 uM
[37] = target: T5, Mu-type opioid receptor (Homo sapiens, UniProt P35372); experiment: GPCRScan assay: inhibition of MOR; design: radioligand conc. used [nm] 1.0 – 2.0, parental cells stable HEK
[38] = target: Sodium-dependent serotonin transporter (Homo sapiens) (UniProt P31645); conditions: Compound concentration 10.0 uM
[39] = target: 5-hydroxytryptamine receptor 3A (Homo sapiens) (UniProt P46098); conditions: Compound concentration 10.0 uM
[40] = target: T6, Delta-type opioid receptor (Homo sapiens, UniProt P41143); experiment: GPCRScan assay: inhibition of DOR; design: radioligand conc. used [nm] 1.0 – 2.0, parental cells stable HEK
[41] = test system: KMS-12-PE; experiment: KMS-12-PE Bax/Bak dKO cell line Proliferation assay; format: functional, Homo sapiens
[42] = test system: MOLP-8; experiment: MOLP8 cell line Proliferation assay; format: functional, Homo sapiens
[43] = target: Alpha-1D adrenergic receptor (Homo sapiens) (UniProt P25100); conditions: Compound concentration 10.0 uM
[44] = target: Muscarinic acetylcholine receptor M3 (Homo sapiens) (UniProt P20309); conditions: Compound concentration 10.0 uM
[45] = target: Beta-3 adrenergic receptor (Homo sapiens) (UniProt P13945); conditions: Compound concentration 10.0 uM
[46] = target: T6, Delta-type opioid receptor; conditions: Compound concentration 10.0 uM
[47] = target: 5-hydroxytryptamine receptor 1B (Homo sapiens) (UniProt P28222); conditions: Compound concentration 10.0 uM
[48] = test system: SUD4; experiment: SU-DHL-4 cell line Proliferation assay; format: functional, Homo sapiens
[49] = target: T1, Induced myeloid leukemia cell differentiation protein Mcl-1; experiment: Caspase Glo MOLP-8 assay; format: functional, cell-based, MOLP8
[50] = target: 5-hydroxytryptamine receptor 7 (Homo sapiens) (UniProt P34969); conditions: Compound concentration 10.0 uM
[51] = target: 5-hydroxytryptamine receptor 2A (Homo sapiens) (UniProt P28223); conditions: Compound concentration 10.0 uM
[52] = test system: OCI-AML2; experiment: OCI-AML-2 cell line Proliferation assay; format: functional, Homo sapiens
[53] = target: Histamine H3 receptor (Homo sapiens) (UniProt Q9Y5N1); conditions: Compound concentration 10.0 uM
[54] = target: 5-hydroxytryptamine receptor 2B (Homo sapiens) (UniProt P41595); conditions: Compound concentration 10.0 uM
[55] = target: Kappa-type opioid receptor (Homo sapiens) (UniProt P41145); conditions: Compound concentration 10.0 uM
[56] = target: Histamine H2 receptor (Homo sapiens) (UniProt P25021); conditions: Compound concentration 10.0 uM
[57] = target: T4, Sodium-dependent dopamine transporter; experiment: GPCRScan assay: inhibition of DAT; design: radioligand conc. used [nm] 3.6 – 16.0, parental cells stable HEK
[58] = target: 5-hydroxytryptamine receptor 1A (Homo sapiens, UniProt P08908); experiment: GPCRScan assay: inhibition of 5-HT1A; design: radioligand conc. used [nm] 0.5 – 1.0, parental cells stable CHO
[59] = target: T3, 5-hydroxytryptamine receptor 5A; experiment: GPCRScan assay: inhibition of 5-HT5A; design: radioligand conc. used [nm] 2.0 - 3.3, parental cells Flp-In CHO
[60] = target: Beta-1 adrenergic receptor (Homo sapiens) (UniProt P08588); conditions: Compound concentration 10.0 uM
[61] = target: T2, Sodium-dependent noradrenaline transporter; experiment: GPCRScan assay: inhibition of NET; design: radioligand conc. used [nm] 1.3 – 5.0, parental cells stable HEK
[62] = target: Muscarinic acetylcholine receptor M4 (Homo sapiens) (UniProt P08173); conditions: Compound concentration 10.0 uM
[63] = target: Alpha-1A adrenergic receptor (Homo sapiens) (UniProt P35348); conditions: Compound concentration 10.0 uM
[64] = target: T5, Mu-type opioid receptor; conditions: Compound concentration 10.0 uM

T3 sequence (P47898 whole entry): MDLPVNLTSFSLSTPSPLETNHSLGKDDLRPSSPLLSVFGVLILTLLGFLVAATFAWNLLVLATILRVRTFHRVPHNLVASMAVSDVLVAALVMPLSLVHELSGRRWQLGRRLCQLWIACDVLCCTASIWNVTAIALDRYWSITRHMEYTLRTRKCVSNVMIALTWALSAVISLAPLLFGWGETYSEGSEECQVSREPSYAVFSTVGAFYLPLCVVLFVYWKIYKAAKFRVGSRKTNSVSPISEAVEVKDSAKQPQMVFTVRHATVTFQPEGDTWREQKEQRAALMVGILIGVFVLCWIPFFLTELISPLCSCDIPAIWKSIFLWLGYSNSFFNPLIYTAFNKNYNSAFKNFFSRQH
Sequence of Sigma intracellular receptor 2 (Homo sapiens) (Q5BJF2 whole entry): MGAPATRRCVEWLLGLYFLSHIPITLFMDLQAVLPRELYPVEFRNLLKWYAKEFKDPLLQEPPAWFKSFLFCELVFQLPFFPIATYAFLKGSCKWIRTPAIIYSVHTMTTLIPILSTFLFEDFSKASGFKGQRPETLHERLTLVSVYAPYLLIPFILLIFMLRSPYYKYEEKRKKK
Sequence of Alpha-1D adrenergic receptor (Homo sapiens) (P25100 whole entry): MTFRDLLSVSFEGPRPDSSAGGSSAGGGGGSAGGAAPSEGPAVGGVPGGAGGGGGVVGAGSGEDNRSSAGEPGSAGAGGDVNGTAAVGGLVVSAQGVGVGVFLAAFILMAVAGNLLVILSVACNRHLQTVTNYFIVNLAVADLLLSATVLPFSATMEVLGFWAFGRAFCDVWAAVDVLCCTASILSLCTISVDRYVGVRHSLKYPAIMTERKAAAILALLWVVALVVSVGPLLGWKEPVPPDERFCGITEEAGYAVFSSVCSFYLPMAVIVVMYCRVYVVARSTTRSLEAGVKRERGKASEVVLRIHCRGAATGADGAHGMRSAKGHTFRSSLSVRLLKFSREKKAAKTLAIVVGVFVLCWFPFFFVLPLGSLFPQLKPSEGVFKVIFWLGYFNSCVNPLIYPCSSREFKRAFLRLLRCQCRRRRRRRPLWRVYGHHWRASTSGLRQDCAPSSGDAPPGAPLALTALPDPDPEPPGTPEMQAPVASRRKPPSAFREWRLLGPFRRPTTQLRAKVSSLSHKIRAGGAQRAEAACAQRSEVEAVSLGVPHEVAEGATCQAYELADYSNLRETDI
Sequence of 5-hydroxytryptamine receptor 2C (Homo sapiens) (P28335 whole entry): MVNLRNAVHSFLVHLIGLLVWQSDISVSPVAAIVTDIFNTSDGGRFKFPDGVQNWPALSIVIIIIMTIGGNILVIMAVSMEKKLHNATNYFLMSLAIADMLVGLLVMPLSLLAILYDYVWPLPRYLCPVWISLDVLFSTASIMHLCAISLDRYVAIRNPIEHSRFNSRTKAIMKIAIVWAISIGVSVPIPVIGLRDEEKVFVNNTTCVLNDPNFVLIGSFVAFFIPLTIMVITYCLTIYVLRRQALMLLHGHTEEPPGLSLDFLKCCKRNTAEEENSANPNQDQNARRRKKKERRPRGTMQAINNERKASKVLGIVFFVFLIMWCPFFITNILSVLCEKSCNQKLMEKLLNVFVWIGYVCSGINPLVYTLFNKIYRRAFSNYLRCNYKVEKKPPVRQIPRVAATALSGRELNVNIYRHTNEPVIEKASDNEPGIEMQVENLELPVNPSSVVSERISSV
Sequence of 5-hydroxytryptamine receptor 3A (Homo sapiens) (P46098 whole entry): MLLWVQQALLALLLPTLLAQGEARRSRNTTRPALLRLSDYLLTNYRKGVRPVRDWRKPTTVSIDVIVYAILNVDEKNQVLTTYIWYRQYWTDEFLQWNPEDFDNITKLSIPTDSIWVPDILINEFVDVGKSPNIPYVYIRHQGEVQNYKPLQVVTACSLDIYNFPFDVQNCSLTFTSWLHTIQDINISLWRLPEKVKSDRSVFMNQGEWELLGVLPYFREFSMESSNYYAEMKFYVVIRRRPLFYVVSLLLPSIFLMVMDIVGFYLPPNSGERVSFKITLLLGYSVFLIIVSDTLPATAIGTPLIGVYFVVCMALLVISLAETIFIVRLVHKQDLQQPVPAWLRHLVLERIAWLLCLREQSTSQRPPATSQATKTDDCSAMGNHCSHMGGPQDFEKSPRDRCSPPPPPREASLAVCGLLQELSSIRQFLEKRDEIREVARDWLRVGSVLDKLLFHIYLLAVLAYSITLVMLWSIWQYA
Sequence of D(3) dopamine receptor (Homo sapiens) (P35462 whole entry): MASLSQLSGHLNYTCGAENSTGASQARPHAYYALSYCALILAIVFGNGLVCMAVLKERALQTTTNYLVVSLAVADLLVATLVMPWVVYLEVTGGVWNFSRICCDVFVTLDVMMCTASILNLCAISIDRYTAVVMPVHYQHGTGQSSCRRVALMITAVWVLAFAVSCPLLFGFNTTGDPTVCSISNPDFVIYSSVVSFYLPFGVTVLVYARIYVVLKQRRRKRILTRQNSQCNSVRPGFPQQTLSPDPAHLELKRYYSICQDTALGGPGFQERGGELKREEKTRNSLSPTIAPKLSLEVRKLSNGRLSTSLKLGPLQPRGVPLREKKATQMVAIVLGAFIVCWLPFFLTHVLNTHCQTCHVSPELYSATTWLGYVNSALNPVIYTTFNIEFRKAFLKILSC
Sequence of 5-hydroxytryptamine receptor 1D (Homo sapiens) (P28221 whole entry): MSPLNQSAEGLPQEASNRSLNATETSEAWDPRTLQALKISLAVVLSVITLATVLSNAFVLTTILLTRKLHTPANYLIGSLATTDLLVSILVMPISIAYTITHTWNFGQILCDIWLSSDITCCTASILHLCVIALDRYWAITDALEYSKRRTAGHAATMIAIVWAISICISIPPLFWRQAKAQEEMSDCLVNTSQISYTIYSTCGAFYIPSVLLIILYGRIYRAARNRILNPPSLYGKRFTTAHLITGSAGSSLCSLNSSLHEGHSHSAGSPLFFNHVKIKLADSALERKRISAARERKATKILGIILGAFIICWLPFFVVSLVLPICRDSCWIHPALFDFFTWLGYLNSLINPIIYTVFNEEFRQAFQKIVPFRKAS
Sequence of D(1B) dopamine receptor (Homo sapiens) (P21918 whole entry): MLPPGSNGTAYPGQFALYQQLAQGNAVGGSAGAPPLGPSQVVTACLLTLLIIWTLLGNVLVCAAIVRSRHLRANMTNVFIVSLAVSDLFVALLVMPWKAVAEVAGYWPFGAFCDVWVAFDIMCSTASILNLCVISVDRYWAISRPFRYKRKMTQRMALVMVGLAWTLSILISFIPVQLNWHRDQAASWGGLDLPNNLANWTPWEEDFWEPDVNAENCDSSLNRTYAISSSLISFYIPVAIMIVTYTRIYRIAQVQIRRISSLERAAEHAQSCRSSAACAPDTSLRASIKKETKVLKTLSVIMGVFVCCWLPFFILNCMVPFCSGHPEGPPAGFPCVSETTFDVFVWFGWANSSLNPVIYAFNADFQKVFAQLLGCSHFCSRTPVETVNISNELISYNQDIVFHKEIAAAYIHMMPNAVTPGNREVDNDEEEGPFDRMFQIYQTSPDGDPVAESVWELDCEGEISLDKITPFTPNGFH
T6 sequence (P41143 whole entry): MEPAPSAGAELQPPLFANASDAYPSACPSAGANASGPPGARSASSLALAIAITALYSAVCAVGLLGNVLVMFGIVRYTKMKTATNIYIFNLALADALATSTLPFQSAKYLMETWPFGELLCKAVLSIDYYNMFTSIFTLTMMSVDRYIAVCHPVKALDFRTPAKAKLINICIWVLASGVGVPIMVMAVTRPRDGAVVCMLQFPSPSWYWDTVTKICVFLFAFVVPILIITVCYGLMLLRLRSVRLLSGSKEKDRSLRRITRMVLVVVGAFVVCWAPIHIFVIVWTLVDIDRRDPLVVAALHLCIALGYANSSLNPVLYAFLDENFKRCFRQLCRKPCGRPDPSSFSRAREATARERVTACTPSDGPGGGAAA
Sequence of D(2) dopamine receptor (Homo sapiens) (P14416 whole entry): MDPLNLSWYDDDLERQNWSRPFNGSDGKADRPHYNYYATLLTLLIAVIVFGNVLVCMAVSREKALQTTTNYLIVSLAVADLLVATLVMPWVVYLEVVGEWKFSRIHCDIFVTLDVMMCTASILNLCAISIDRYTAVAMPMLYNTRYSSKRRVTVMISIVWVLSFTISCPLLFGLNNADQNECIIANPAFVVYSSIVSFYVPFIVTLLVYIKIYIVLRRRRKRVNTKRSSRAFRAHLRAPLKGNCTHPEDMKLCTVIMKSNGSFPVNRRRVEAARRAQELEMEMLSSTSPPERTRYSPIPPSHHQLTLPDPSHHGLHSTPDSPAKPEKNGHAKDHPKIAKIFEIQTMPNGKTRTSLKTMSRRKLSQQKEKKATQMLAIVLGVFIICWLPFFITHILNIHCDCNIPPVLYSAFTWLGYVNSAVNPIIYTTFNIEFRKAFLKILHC
T2 sequence (P23975 whole entry): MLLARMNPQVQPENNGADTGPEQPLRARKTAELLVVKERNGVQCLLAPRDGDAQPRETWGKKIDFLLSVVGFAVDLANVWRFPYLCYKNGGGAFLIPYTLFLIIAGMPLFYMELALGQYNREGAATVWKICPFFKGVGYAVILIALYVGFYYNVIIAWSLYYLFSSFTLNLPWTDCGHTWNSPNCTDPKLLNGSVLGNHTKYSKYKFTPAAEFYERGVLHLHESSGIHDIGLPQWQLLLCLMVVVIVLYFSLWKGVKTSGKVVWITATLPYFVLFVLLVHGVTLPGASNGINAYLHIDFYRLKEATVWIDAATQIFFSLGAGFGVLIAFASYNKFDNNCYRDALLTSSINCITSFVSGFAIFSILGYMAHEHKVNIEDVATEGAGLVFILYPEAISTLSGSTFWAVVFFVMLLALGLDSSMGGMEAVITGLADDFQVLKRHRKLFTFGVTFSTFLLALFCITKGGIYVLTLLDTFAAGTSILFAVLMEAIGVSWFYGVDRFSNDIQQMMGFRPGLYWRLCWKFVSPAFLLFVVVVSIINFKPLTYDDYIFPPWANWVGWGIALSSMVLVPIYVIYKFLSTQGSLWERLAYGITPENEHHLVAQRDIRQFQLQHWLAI
Sequence of Bcl-2-related protein A1 (Q16548 whole entry): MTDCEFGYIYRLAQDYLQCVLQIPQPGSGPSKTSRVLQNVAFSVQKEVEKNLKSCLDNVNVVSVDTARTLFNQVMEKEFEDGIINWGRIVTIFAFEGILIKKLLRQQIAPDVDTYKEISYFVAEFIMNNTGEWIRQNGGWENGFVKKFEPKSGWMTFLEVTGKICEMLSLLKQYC

COCCOCCn1nc2c(c1C)-c1c(Cl)ccc3c1c(C)c(C(=O)O)n3CCCOc1cc(cc3c(F)c(Cl)ccc13)CCc1cc(nn1C)CSC2
inhibition [1]: 1.66% | inhibition [2]: 26.2% | Cell Proliferation AC50 [3]: 14 nM | Ki [4]: 0.015 nM (active) | inhibition [5]: 3.84% | inhibition [6]: -1.94% | inhibition [7]: -9.51% | inhibition [8]: 18.7% | inhibition [9]: 30.1% | Cell Proliferation AC50 [10]: 4.8 nM | Cell Proliferation AC50 [11]: 69 nM | inhibition [12]: -0.94% | inhibition [13]: 6.6% | inhibition [14]: 10.4% | inhibition [15]: 4.71% | inhibition [16]: -6.42% | Cell Proliferation AC50 [17]: 79 nM | inhibition [18]: 4.67% | inhibition [19]: 21.5% | Cell Proliferation AC50 [20]: >30000 nM | Cell Proliferation AC50 [21]: 27 nM | Ki [22]: > 5000 nM (not active) | inhibition [23]: 28.5% | Ki [24]: > 3750 nM (not active) | Cell Proliferation AC50 [25]: 10 nM | inhibition [26]: 17.4% | inhibition [27]: -6.66% | inhibition [28]: 2.7% | Cell Proliferation AC50 [29]: 73 nM | inhibition [30]: 20.6% | Cell Proliferation AC50 [31]: 2.1 nM | inhibition [32]: 47.8% | inhibition [33]: -0.28% | inhibition [34]: 13.5% | Ki [35]: > 5000 nM (not active) | inhibition [36]: 49.5% | Ki [37]: > 10000 nM | pKi [37]: < 5 | inhibition [38]: 11.2% | inhibition [39]: 6.57% | Ki ([40]; read-out: Ki): 871 nM | Ki ([40]; read-out: pKi (converted)): 724 nM | Cell Proliferation AC50 [41]: >30000 nM | Cell Proliferation AC50 [42]: 8.7 nM | inhibition [43]: 2.28% | inhibition [44]: -0.43% | inhibition [45]: 24.5% | inhibition [46]: 61.9% | inhibition [47]: 9.97% | Cell Proliferation AC50 [48]: 21 nM | AC50 [49]: 12 nM (active) | inhibition [50]: 20.1% | inhibition [51]: -0.64% | Cell Proliferation AC50 [52]: 48 nM | inhibition [53]: 4.96% | inhibition [54]: -1.5% | inhibition [55]: 0.68% | inhibition [56]: 13.1%

COCCOCCn1nc(C)c2c1CSCc1cc(n(C)n1)CCc1cc(c3ccc(F)cc3c1)OCCCn1c(C(=O)O)c(C)c3c-2c(Cl)ccc31
inhibition [1]: 7.75% | Ki ([57]; read-out: Ki): 3720 nM | Ki ([57]; read-out: pKi (converted)): 3550 nM | inhibition [2]: 51.7% | Ki [4]: 115 nM (not active) | inhibition [5]: 7% | inhibition [6]: -0.92% | inhibition [7]: 2.15% | inhibition [8]: 11.8% | inhibition [9]: 58.9% | Ki ([58]; read-out: Ki): 1700 nM | Ki ([58]; read-out: pKi (converted)): 1580 nM | inhibition [12]: 4.4% | Ki ([59]; read-out: Ki): 2470 nM | Ki ([59]; read-out: pKi (converted)): 2450 nM | inhibition [13]: 29.5% | inhibition [14]: 34.7% | inhibition [15]: -3.65% | inhibition [16]: 31.4% | inhibition [18]: 1.89% | inhibition [19]: 6.61% | inhibition [23]: 54.5% | inhibition [60]: -3.32% | inhibition [26]: 23.4% | inhibition [27]: -6.49% | inhibition [28]: 3.35% | inhibition [30]: 30.7% | inhibition [32]: 76.5% | inhibition [33]: 10.8% | inhibition [34]: 18.2% | inhibition [36]: 57.7% | inhibition [38]: 11.4% | inhibition [39]: 8.89% | Ki ([40]; read-out: Ki): 3230 nM | Ki ([40]; read-out: pKi (converted)): 2630 nM | Ki ([61]; read-out: Ki): 2880 nM | Ki ([61]; read-out: pKi (converted)): 2750 nM | inhibition [62]: -9.96% | inhibition [43]: 1.09% | inhibition [44]: -1.43% | inhibition [45]: 14.2% | inhibition [46]: 78% | inhibition [47]: 26% | AC50 [49]: > 30000 nM (not active) | inhibition [50]: 19% | inhibition [51]: 10.6% | inhibition [53]: -6.18% | inhibition [54]: 6.21% | inhibition [63]: -4.41% | inhibition [55]: 36.6% | inhibition [56]: 11.6% | inhibition [64]: 10.4%
